Reference: ChEMBL document CHEMBL4184220, “Identification of novel plasminogen activator inhibitor-1 inhibitors with improved oral bioavailability: Structure optimization of N-acylanthranilic acid derivatives” (Bioorg Med Chem Lett, 2018)

Assays:
[1] = Tmax in Wistar rat at 5 mg/kg, po administered as triple or quadruple dosing measured after 1 to 24 hrs by reverse-phase HPLC method; type: ADME, organism-based; conditions: in vivo
[2] = Cmax in Wistar rat at 5 mg/kg, po administered as triple or quadruple dosing measured after 1 to 24 hrs by reverse-phase HPLC method; type: ADME, organism-based; parameters: dose 5 mg/kg, route oral; conditions: in vivo
[3] = Half life in Wistar rat at 5 mg/kg, po administered as triple or quadruple dosing measured after 1 to 24 hrs by reverse-phase HPLC method; type: ADME, organism-based; conditions: in vivo
[4] = target: T1, Plasminogen activator inhibitor 1 (Homo sapiens, UniProt P05121); assay: Inhibition of human PAI-1 assessed as remaining enzyme activity by measuring p-nitroaniline release pre-incubated for 15 mins before 2 nM […] addition for 15 mins using 5 nM enzyme and chromogenic substrate S-2288 by spectrophotometry
T1 sequence (P05121 whole entry): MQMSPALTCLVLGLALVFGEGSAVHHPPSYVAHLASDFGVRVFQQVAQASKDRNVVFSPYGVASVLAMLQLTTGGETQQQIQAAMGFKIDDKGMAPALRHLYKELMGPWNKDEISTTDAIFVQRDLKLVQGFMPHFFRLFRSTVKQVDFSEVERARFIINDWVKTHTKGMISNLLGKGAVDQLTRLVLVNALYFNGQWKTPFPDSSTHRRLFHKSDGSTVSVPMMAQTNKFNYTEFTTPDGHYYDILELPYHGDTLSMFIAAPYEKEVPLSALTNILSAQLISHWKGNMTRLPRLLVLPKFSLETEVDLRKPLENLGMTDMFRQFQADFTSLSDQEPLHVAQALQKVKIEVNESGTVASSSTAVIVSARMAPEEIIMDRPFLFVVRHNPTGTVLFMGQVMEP

[5] = Cmax in Wistar rat at 50 mg/kg, po administered as single dose measured after 1 to 24 hrs by reverse-phase HPLC method; type: ADME, organism-based; parameters: dose 50 mg/kg, route oral; conditions: in vivo
[6] = Half life in Wistar rat at 50 mg/kg, po administered as single dose measured after 1 to 24 hrs by reverse-phase HPLC method; conditions: in vivo
[7] = Tmax in Wistar rat at 50 mg/kg, po administered as single dose measured after 1 to 24 hrs by reverse-phase HPLC method; type: ADME, organism-based; conditions: in vivo
[8] = Half life in Wistar rat at 5 mg/kg, po administered as single dose measured after 1 to 24 hrs by reverse-phase HPLC method; conditions: in vivo
[9] = Cmax in Wistar rat at 5 mg/kg, po administered as single dose measured after 1 to 24 hrs by reverse-phase HPLC method; type: ADME, organism-based; parameters: dose 5 mg/kg, route oral; conditions: in vivo
[10] = Tmax in Wistar rat at 5 mg/kg, po administered as single dose measured after 1 to 24 hrs by reverse-phase HPLC method; type: ADME, organism-based; conditions: in vivo
[11] = target: T1, Plasminogen activator inhibitor 1; assay: Inhibition of human PAI-1 assessed as remaining enzyme activity by measuring p-nitroaniline release pre-incubated for 15 mins before 9.8 nM human tPA substrate addition for 15 mins using 24.5 nM enzyme and chromogenic substrate S-2288 by spectrophotometry

Row | Structure (SMILES) | Tmax [1] [h] | Cmax [2] [µM] | half-life [3] [h] | IC50 [4] [µM] | further results
1 | CC(C)(C)c1ccc(C(=O)Nc2ccc(Cl)cc2C(=O)O)cc1 | 1 | 64.9 | 3.4 | 5.2 | 
2 | O=C(Cc1cccc(-c2ccoc2)c1)Nc1ccc(Cl)cc1C(=O)O | 2 | 43.1 | 1.9 |  | 
3 | O=C(COCC(=O)Nc1ccc(Cl)cc1C(=O)O)Nc1cccc(-c2ccncc2)c1 |  |  |  |  | Cmax [5]: 18 µM; half-life [6]: > 18 h; Tmax [7]: 6 h
4 | O=C(Nc1ccc(Cl)cc1C(=O)[O-])c1cccc(-c2cccc3cnccc23)c1.[Na+] | 2 | 1.2 | 10.5 | 1.84 | 
5 | O=C(COCC(=O)Nc1ccc(Cl)cc1C(=O)O)Nc1ccc(-c2ccncc2)cc1 |  |  |  |  | Cmax [5]: 7.8 µM; Tmax [7]: 6 h
6 | Cc1ccc(-c2ccc(F)cc2)cc1NC(=O)COCC(=O)Nc1ccc(Cl)cc1C(=O)O |  |  |  |  | Cmax [5]: 92.7 µM; half-life [6]: 1.8 h; Tmax [7]: 1 h
7 | COc1ccc(-c2ccc(C)c(NC(=O)COCC(=O)Nc3ccc(Cl)cc3C(=O)O)c2)cc1 |  |  |  |  | half-life [8]: 1 h; Cmax [9]: 2.2 µM; Tmax [10]: 2 h
8 | O=C(Nc1ccc(Cl)cc1C(=O)O)c1ccc(C(=O)c2ccccc2)cc1 | 1 | 35 | 0.9 | 4.11 | 
9 | O=C(COCC(=O)N1CCN(C(c2ccccc2)c2ccccc2)CC1)Nc1ccc(Cl)cc1C(=O)O |  |  |  |  | Cmax [5]: 34.2 µM; half-life [6]: 2.5 h; IC50 [11]: 7.94 µM; Tmax [7]: 2 h
10 | O=C(COCC(=O)Nc1ccc(Cl)cc1C(=O)O)NCc1cccc(-c2ccoc2)c1 | 2 | 14 | 2.7 |  | 
11 | O=C(COCC(=O)Nc1ccc(Cl)cc1C(=O)O)Nc1cccc(-c2ccoc2)c1 |  |  |  |  | Cmax [5]: 149 µM; Cmax [9]: 17.9 µM; Tmax [7]: 1 h; Tmax [10]: 1 h
12 | O=C(Nc1ccc(Cl)cc1C(=O)[O-])c1cccc(-c2cncc3ccccc23)c1.[Na+] | 6 | 1 | 9.2 | 3.19 | 
13 | O=C(COCC(=O)Nc1ccc(Cl)cc1C(=O)O)Nc1cccc(-c2ccsc2)c1 |  |  |  |  | Cmax [5]: 86.5 µM; Tmax [7]: 2 h
14 | O=C(Nc1ccc(Cl)cc1C(=O)O)c1ccc(-c2ccccc2)cc1 | 2 | 73.5 | 10.4 | 2.98 | 
15 | O=C(COCC(=O)Nc1ccc(Cl)cc1C(=O)[O-])Nc1cccc(-n2cccc2)c1.[Na+] |  |  |  |  | half-life [8]: 2.2 h; Cmax [9]: 7.4 µM; Tmax [10]: 2 h
16 | O=C(COCC(=O)Nc1ccc(Cl)cc1C(=O)O)Nc1cccc(C(F)(F)F)c1 |  |  |  |  | Cmax [5]: 58.6 µM; half-life [6]: 0.8 h; Tmax [7]: 1 h
17 | COc1ccccc1-c1ccc(C)c(NC(=O)COCC(=O)Nc2ccc(Cl)cc2C(=O)O)c1 |  |  |  |  | half-life [8]: 2.5 h; Cmax [9]: 2.08 µM; Tmax [10]: 2 h
18 | O=C(COCC(=O)Nc1ccc(Cl)cc1C(=O)O)Nc1ccc(-c2ccoc2)cc1 |  |  |  |  | half-life [8]: 4.2 h; Cmax [9]: 17.6 µM; Tmax [10]: 2 h

Row | Structure (SMILES) | Tmax [1] [h] | Cmax [2] [µM] | half-life [3] [h] | IC50 [4] [µM] | further results
19 | O=C(COCC(=O)Nc1ccc(Cl)cc1C(=O)O)Nc1cccc(-c2cn[nH]c2)c1 |  |  |  |  | half-life [8]: 3.1 h; Cmax [9]: 1.7 µM; Tmax [10]: 1 h
20 | O=C(NCc1cccc(-c2ccoc2)c1)C(=O)Nc1ccc(Cl)cc1C(=O)O | 2 | 41.6 | > 22 |  | 
21 | Cn1cc(-c2cccc(NC(=O)COCC(=O)Nc3ccc(Cl)cc3C(=O)O)c2)cn1 |  |  |  |  | Cmax [5]: 20.5 µM; half-life [6]: 9.9 h; Tmax [7]: 2 h
22 | O=C(COCC(=O)Nc1ccc(Cl)cc1C(=O)O)Nc1cccc(-c2ccon2)c1 |  |  |  |  | half-life [8]: 1.9 h; Cmax [9]: 2 µM; Tmax [10]: 2 h
23 | CC(=O)Nc1ccc(-c2ccc(C)c(NC(=O)COCC(=O)Nc3ccc(Cl)cc3C(=O)O)c2)cc1 |  |  |  |  | Cmax [5]: 0.32 µM; half-life [6]: 1.4 h; Tmax [7]: 2 h
24 | O=C(Nc1ccc(Cl)cc1C(=O)O)c1cccc(C23CC4CC(CC(C4)C2)C3)c1 | 2 | 4.4 | 2.3 | 1.86 | 
25 | O=C(COCC(=O)Nc1ccc(Cl)cc1C(=O)[O-])Nc1cccc(-c2ccccn2)c1.[Na+] |  |  |  |  | Cmax [5]: 136 µM; half-life [6]: 2.4 h; Tmax [7]: 1 h
26 | CCN(C(=O)COCC(=O)Nc1ccc(Cl)cc1C(=O)O)c1cc(-c2ccc(F)cc2)ccc1C |  |  |  |  | half-life [8]: 0.9 h; Cmax [9]: 0.82 µM; Tmax [10]: 1 h
27 | O=C(COCC(=O)Nc1ccc(Cl)cc1C(=O)[O-])Nc1cccc(-c2cccnc2)c1.[Na+] |  |  |  |  | Cmax [5]: 15.1 µM; Tmax [7]: 2 h
28 | O=C(COCC(=O)Nc1ccc(Cl)cc1C(=O)[O-])Nc1cccc(-c2ccc(F)cc2)c1.[Na+] |  |  |  |  | Cmax [5]: 62.8 µM; Tmax [7]: 1 h
29 | O=C(COCC(=O)Nc1ccccc1-c1ccc(F)cc1)Nc1ccc(Cl)cc1C(=O)O |  |  |  |  | Cmax [5]: 41.8 µM; Tmax [7]: 1 h
30 | O=C(COCC(=O)Nc1ccc(Cl)cc1C(=O)O)Nc1cccc(-c2ccco2)c1 |  |  |  |  | half-life [8]: 4 h; Cmax [9]: 11.5 µM; Tmax [10]: 2 h
31 | COc1cccc(-c2ccc(C)c(NC(=O)COCC(=O)Nc3ccc(Cl)cc3C(=O)O)c2)c1 |  |  |  |  | half-life [8]: 1.5 h; Cmax [9]: 9.4 µM; Tmax [10]: 2 h
32 | CC(C)Oc1ccc(C(=O)Nc2ccc(Cl)cc2C(=O)O)cc1 | 1 | 22.3 | 5 | > 10 | 
33 | O=C(Nc1ccc(Cl)cc1C(=O)O)c1ccc(Oc2ccccc2)cc1 | 6 | 64.2 | 13.3 | 5.52 | 
34 | O=C(COCC(=O)Nc1ccc(Cl)cc1C(=O)O)Nc1cccc(-c2ccno2)c1 |  |  |  |  | half-life [8]: 6 h; Cmax [9]: 14 µM; Tmax [10]: 1 h
35 | O=C(Nc1ccc(Cl)cc1C(=O)O)c1ccc(C2CCOCC2)cc1 | 1 | 45.5 | 1.8 | 21.6 | 

More lines, main results first:

Row | Tmax [1] [h] | Cmax [2] [µM] | half-life [3] [h] | IC50 [4] [µM] | Structure (SMILES) | further results
36 | 2 | 22.5 | 1.7 |  | O=C(Nc1cccc(-c2ccoc2)c1)C(=O)Nc1ccc(Cl)cc1C(=O)O | 
37 | 2 | 1.1 | 3.5 | 1.67 | O=C(Nc1ccc(Cl)cc1C(=O)[O-])c1cccc(-c2cnc3ccccc3c2)c1.[Na+] | 
38 | 2 | 29.4 | 2 |  | O=C(Nc1ccc(Cl)cc1C(=O)O)c1cccc(-c2ccoc2)c1 | 
39 | 2 | 5.2 | 1.6 | > 40 | O=C(Nc1ccc(Cl)cc1C(=O)[O-])c1cccc(-c2ccncc2)c1.[Na+] | 
40 | 1 | 22.2 | 2.5 | 3.63 | O=C(Nc1ccc(Cl)cc1C(=O)[O-])c1cccc(-c2cccc3cccnc23)c1.[Na+] | 
41 | 2 | 13.8 | 4.3 | 1.17 | O=C(Nc1ccc(Cl)cc1C(=O)O)c1ccc(C23CC4CC(CC(C4)C2)C3)cc1 | 
42 | 1 | 5.2 | 0.7 | 2.31 | O=C(Nc1ccc(Cl)cc1C(=O)O)c1cccc(C2=CCCCC2)c1 | 
43 | 2 | 17 | 1.6 | 2.82 | O=C(Nc1ccc(Cl)cc1C(=O)O)c1cccc(-c2ccccc2)c1 | 
44 | 2 | 38.4 | 1.9 | > 20 | O=C(Nc1ccc(Cl)cc1C(=O)O)c1ccc(-c2cccs2)cc1 | 
45 | 1 | 15.2 | 0.7 | 2.4 | O=C(Nc1ccc(Cl)cc1C(=O)O)c1ccc(C2CCCCC2)cc1 | 
46 | 2 | 6.3 | 1.7 | 0.9 | O=C(Nc1ccc(Cl)cc1C(=O)O)c1cccc(-c2cccc3ccccc23)c1 | 
47 | 2 | 56.3 | 1.9 |  | O=C(COc1cccc(-c2ccoc2)c1)Nc1ccc(Cl)cc1C(=O)O | 
48 | 1 | 3.3 | 1.4 | 2.42 | O=C(Nc1ccc(Cl)cc1C(=O)O)c1cccc(C2CCCCC2)c1 | 
49 | 1 | 5.4 | 2.6 |  | O=C(CSCC(=O)Nc1ccc(Cl)cc1C(=O)O)Nc1cccc(-c2ccoc2)c1 | 
